Experimental data: US20110166128A1, “Diaryldiazepine Prodrugs for the Treatment of Neurological and Psychological Disorders” (priority 2010, published 2011)

Test: physchem
Text: At pH 4 and 5, 0.1 M citrate buffers were used, while for pH 6, 7 and 8 a set of 0.1M phosphate buffers were used. Each buffer also contained 0.2 M NaCl. No cosolvents or other potentially solubilizing components were included. Buffer preparations were subdivided in order to individually test the solubility of only one material in a given buffer sample.

variation in solubility across the pH range studied: less than 2 fold
solubility (pH 4, aqueous buffer, thermodynamic from solid): 0.1 to 0.2 ng/mL
Structure (SMILES): CCCCCCCCCCCCC(C)(C)C(=O)OC[N+]1(C)CCN(C2=Nc3ccccc3Nc3sc(C)cc32)CC1.[I-] [Compound 18, 1-(((2,2-dimethyltetradecanoyl)oxy)methyl)-1-methyl-4-(2-methyl-10H-benzo[b]thieno[2,3-e][1,4]diazepin-4-yl)piperazin-1-ium iodide]
